{"source": "patent US7678386B2", "about": "“Liposomes coated with selected antibodies that bind to aminophospholipids” (Board of Regents the University of Texas, priority 2002, dated 2010)", "key": {"[1]": {"tested_on": "blood vessels of L540 tumors", "experiment": "Annexin V inhibition of coaguligand-induced thrombosis in vivo", "design": "species or system mouse", "protocol": "The ability of Annexin V to inhibit coaguligand-induced thrombosis in vivo was examined in L540 Hodgkin-bearing SCID mice. Tumors were grown in mice and two mice per group (tumor size 0.5 cm in diameter) were injected intravenously via the tail vein with one of the following reagents: a) saline; b) 100 μg of Annexin V; c) 40 μg of anti-VCAM-1•tTF; d) 100 μg of Annexin V followed 2 hours later by 40 μg of anti-VCAM-1•tTF.\nFour hours after the last injection mice were anesthetized and perfused with heparinized saline. Tumors were removed, fixed with 4% formalin, paraffin-embedded and stained with hematoxylene-eosin. The number of thrombosed and non-thrombosed blood vessels was counted and the percentage of thrombosis was calculated."}, "[2]": {"tested_on": "vascular endothelium of MDA-MB-231 tumors", "experiment": "Double staining study, orthotopic MDA-MB-231 tumors", "assay_type": "in vivo, mouse", "conditions": "biotinylated reagent i.v., one hour", "protocol": "In further studies, mice bearing MDA-MB-231 tumors (0.3-0.7 cm^3 in volume) were injected intravenously with 50 μg of biotinylated 9D2, control IgM or annexin V (six mice per group). Biotinylated reagents were first incubated with streptavidin-Cy3 conjugate, washed in PBS. then incubated with MECA 32 antibody followed by FITC-tagged anti-rat IgG secondary antibody. Single images, taken with appropriate filters for Cy3 (red) and FITC (green) fluorescence respectively, were captured by digital camera and transferred to a computer. […] The same method was used to analyze tumors from mice injected with control rat IgM or saline. The percentage of vessels with localized 9D2 or annexin V was calculated as follows: mean number of yellow vessels per field divided by mean number of green (total) vessels multiplied by 100.\nDouble staining studies were also performed in which mice bearing orthotopic MDA-MB-231 breast tumors were injected intravenously with biotinylated 9D2 antibody, biotinylated control IgM or biotinylated annexin V. One hour later, the mice were exsanguinated, and their tumors were removed and frozen sections were cut. The tumor sections were then stained with Cy3-conjugated streptavidin to detect the biotinylated proteins and with FITC-conjugated MECA32 to detect vascular endothelium. […]"}, "[3]": {"experiment": "ELISA on plates coated with phospholipids (specificity)", "assay_type": "binding", "conditions": "identical antibody concentration", "protocol": "The protocol entails coating 96-well plate with PS as follows: dilute the PS stock solution in n-hexane to 10 μg/ml and mix well. Add 50 μl to each well and allow this to evaporate for one hour. Add 200 μl of 10% serum (or other blocking buffer) to each well, cover and maintain at room temperature for 2 hours or overnight at 4° C. Wash the plate three times with PBS. Add the primary antibody (dilute in blocking buffer) and incubate for 2 hours at 37° C. Wash three times with PBS. Add 100 μl/well of secondary antibody (typically goat. anti-mouse IgG-HRP or other appropriate secondary antibody) and incubate for 1 hour at 37° C. Wash the plate three times with PBS. Develop the ELISA by adding 100 μl of developing solution to each of the wells, develop for 10 minutes, then add 100 μl of stop solution to each plate and read the O.D. at 490 nm.\nThe specificity of the antibodies was determined by ELISA using plates coated with the following phospholipids: PS, phosphatidylserine; PE, phosphatidylethanolamine; PI, phosphatidylinositol: PA. phosphatidic acid; PG, phosphatidylglycerol; PC, phosphatidylcholine: CL, cardiolipin; and SM, sphingomyelin.\nThe 1B9, 2G7 and 7C5 antibodies behave essentially the same. These antibodies recognize only PS and require serum or serum proteins for binding to PS. […]"}, "[4]": {"experiment": "Reactivity with plastic-immobilized phospholipid (ELISA)", "conditions": "read-out: EC50 of binding", "protocol": "(§1) Phospholipids were dissolved in n-hexane to a concentration of 50 μg/ml. 100 μl of this solution was added to wells of 96-well microtiter plates. After evaporation of the solvent in air, the plates were blocked for 2 h with 10% fetal bovine serum diluted in DPBS containing 2 mM Ca^2+ (binding buffer).\n(§2) 9D2 antibody or annexin V were diluted in the binding buffer in the presence of 10% serum at an initial concentration of 6.7 nM. Serial two-fold dilutions were prepared in the plates (100 μl per well). The plates were then incubated for 2 h at room temperature. The plates were washed and the 9D2 and annexin V were detected by goat anti-rat IgM conjugated to HRP and rabbit anti-human annexin V followed by goat anti-rabbit IgG conjugated to HRP (all diluted 1:1000), respectively. Secondary reagents were detected by using chromogenic substrate OPD followed by reading plates at 490 nm using a microplate reader (Molecular Devices, Palo Alto, Calif.).\n(§3) The specificity of the 9D2 antibody binding was validated by using control rat IgM of irrelevant specificity (Pharmingen, San Diego, Calif.). The specificity of annexin V binding to phospholipids, which is Ca^2+-dependent, was determined by diluting the reagent in the DPBS containing 5 mM EDTA. Additional negative controls consisted of washing the plates with the binding buffer containing 0.2% of a detergent Tween 20. This treatment extracts lipids, thus removing the phospholipid that was absorbed to plastic. Neither 9D2 antibody nor annexin V bound to detergent-washed plates."}, "[5]": {"experiment": "Competition of 9D2 and annexin V for binding to immobilized PS", "conditions": "competitor in 10-fold molar excess", "protocol": "Biotinylated 9D2 antibody and annexin V were prepared by incubating purified proteins with a 10-fold molar excess of N-hydroxysuccinimide biotin (Sigma, Mo.) for 1 h at room temperature. Free biotin was removed by dialysis against PBS. […] For competition studies, […] biotinylated proteins were premixed with a 10-fold molar excess of unmodified proteins. The mixtures were then added to PS-coated plates. Bound reagents were detected by streptavidin-HRP conjugate diluted 1:1000. The binding to PS of each reagent in the absence of a competitor was taken as the 100% value."}, "[6]": {"experiment": "Reactivity with plastic-immobilized phospholipids (ELISA), panel", "assay_type": "binding", "protocol": "as §1, §2, §3"}}, "note": "Like-named read-outs stand apart in the source and are kept apart here."}
{"substance": "Annexin V: high affinity PS binding ligand; natural ligand of anionic phospholipids and PE", "values": [{"measurement": "coaguligand-induced intravascular thrombosis and changes in tumor cell morphology", "setting": "[1]; 100 μg Annexin V 2 hours before 40 μg coaguligand", "value": "completely abolished"}, {"measurement": "tumor morphology", "setting": "[1]; 100 μg Annexin V alone", "value": "did not alter tumor morphology"}, {"measurement": "MECA 32 positive vessels that bound the reagent", "setting": "[2]", "value": "About 40%"}, {"measurement": "Relative Strength of Reactivity on ELISA", "setting": "[3]", "value": "PS = PE = PI = PA > CL > PG"}, {"measurement": "EC50", "setting": "[4]; CL", "value": 0.13, "unit": "nM"}, {"measurement": "EC50", "setting": "[4]; PA", "value": 0.1, "unit": "nM"}, {"measurement": "EC50", "setting": "[4]; PC", "value": "> 8", "unit": "nM"}, {"measurement": "EC50", "setting": "[4]; PE", "value": 0.1, "unit": "nM"}, {"measurement": "EC50", "setting": "[4]; PG", "value": 0.25, "unit": "nM"}, {"measurement": "EC50", "setting": "[4]; PI", "value": 0.05, "unit": "nM"}, {"measurement": "EC50", "setting": "[4]; PS", "value": 0.1, "unit": "nM"}, {"measurement": "EC50", "setting": "[4]; SM", "value": "> 8", "unit": "nM"}, {"measurement": "Binding (% Control) of biotinylated 9D2 to PS", "setting": "[5]", "value": 93, "unit": "%"}, {"measurement": "Binding (% Control) of biotinylated annexin V to PS", "setting": "[5]", "value": 8, "unit": "%"}, {"measurement": "binding to anionic phospholipids in the presence of 5 mM EDTA", "setting": "[6]", "value": "abolished"}, {"measurement": "binding to heparin, heparan sulfate or double or single stranded DNA", "setting": "[6]", "value": "did not bind detectably"}, {"measurement": "order of strength of binding to phospholipids in ELISA", "setting": "[6]; 10% serum", "value": "PI>PS=PE=PA=CL>PG"}]}
